Molecular target: T1, MAL^TIR (Homo sapiens, UniProt P58753)
T1 construct: MAL (residues 79–221); 6xHis; made in house; host or cells: E. coli BL21 (DE3)
Test: T‐Surf phage library (P8 and P3) selection against MAL^TIR, four rounds, NGS read counts
Assay type: binding
Conditions: for P3_MAL Rank (after) / P3_MAL Rank (before): P3 library; for P8_MAL Rank (after) / P8_MAL Rank (before): P8 library
Description: T‐Surf libraries were screened against the immobilized TIR domains of two major human TLR adaptor proteins, MAL^TIR and MyD88^TIR, allowing cross‐species selection of TIR‐binding motifs with 190 946 TIR‐derived peptides in a single binding assay (Scheme 1). Enriched phage pools from the fourth round of selection were analyzed using NGS after barcoding the peptide‐coding regions of the phage pools.
Phage display screening was performed by coating two wells of a 96‐well plate (Maxisorp, Thermo Fisher Scientific) with 100 µL of 5 µg mL^−1 TIR domains overnight; then, the coated wells were blocked with 200 µL of blocking buffer (0.2% BSA in PBS) and set aside for 1 h at 4 °C with gentle shaking. Next, 100 µL of the phage library was added to the wells and incubated for 1 h at room temperature (RT; 20 – 22 °C) with gentle shaking. The plate was washed four times with PBS containing 0.5% Tween‐20; the bound phages were eluted by adding 100 µL of 100 mM HCl to each well. The elute was neutralized with 10 µL of 1.0 M Tris‐HCl (pH 11.0). E. coli TG1 cells were grown to the log phase (A600 = ≈0.6), and 1 mL of the culture was incubated with 100 µL of the eluted phages for 30 min at 37 °C, with shaking at 200 rpm. Next, 1 µL of M13KO7 helper phages was added, followed by incubation for 45 min at 37 °C, with shaking. Subsequently, the cells were transferred to 25 mL of 2× yeast extract tryptone/carbenicillin/kanamycin medium and incubated overnight at 37 °C with shaking at 200 rpm. The amplified phages were precipitated with 20% PEG‐8000/2.5 M NaCl to be used for the next round of selection.
The naïve T‐Surf libraries in P8 and P3 and the enriched phage pools after four rounds were barcoded for NGS as previously described.^[ [59] ^] Briefly, 5 µL of the phage pool was used as a template for 20 cycles of a 50 µL PCR reaction using […] each of forward and reverse barcoded primers and PrimeSTAR Max DNA Polymerase. The PCR products were purified using Expin Gel SV (GeneAll). The NGS samples were quantified using qPCR, following the qPCR Quantification Protocol Guide (KAPA Library Quantification kits for Illumina Sequencing Platform), and qualified using the TapeStation High Sensitivity D1000 ScreenTape (Agilent Technologies). The indexed libraries were further sequenced by Macrogen (Seoul, Republic of Korea) using the NovaSeq platform (Illumina) with 100 bp paired‐end reads. The reads were demultiplexed by barcodes and filtered for an average Phred quality score of at least 30, followed by trimming the flanking consensus sequences using Cutadapt (version 2.3). Peptide sequence populations were analyzed according to the read counts.

[1] = selection against MAL, rank after grouping
[2] = selection against MAL, rank before grouping
[3] = P3_MAL: rank by count after grouping
[4] = P3_MAL: rank by count before grouping
[5] = 4R selection against MAL, rank after grouping
[6] = 4R selection against MAL, rank before grouping
[7] = selection against MAL TIR, rank by count after grouping
[8] = selection against MAL TIR, rank by count before grouping
[9] = P8_MAL: rank by count after grouping
[10] = P8_MAL: rank by count before grouping
[11] = selection against MAL, rank by count after grouping
[12] = selection against MAL, rank by count before grouping

T1 sequence (P58753 79-221): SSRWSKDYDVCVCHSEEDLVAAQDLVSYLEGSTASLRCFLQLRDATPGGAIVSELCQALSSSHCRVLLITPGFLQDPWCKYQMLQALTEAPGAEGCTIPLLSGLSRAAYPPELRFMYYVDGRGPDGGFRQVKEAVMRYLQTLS

## RGFLSHRRYHLQAKDH
[1]
  P3_MAL Rank (after): 539
[2]
  P3_MAL Rank (before): 2396

## AFFWAQLKSELGNPSM
[1]
  P8_MAL Rank (after): 515
[2]
  P8_MAL Rank (before): 1644

## NQWRNSLTAAANLRGW
[3]
  Rank (after): 173
[4]
  Rank (before): 3340

## KPSVSGPEKSWHFYL
[5]
  P3_MAL Rank (after): 660
[6]
  P3_MAL Rank (before): 3467

## SSFRERLWRLLELRKK
[3]
  Rank (after): 128
[4]
  Rank (before): 3190

## LKGESWRQAREKAGKL
[1]
  P3_MAL Rank (after): 533
[2]
  P3_MAL Rank (before): 2303

## RNFVAYLFRALANKGI
P8_MAL pool: P8 T-Surf phage library, 4th round of selection against MAL TIR, share of NGS reads
  Population: 0.00371%

## RLLKCTEALHQFHNWV
[1]
  P3_MAL Rank (after): 566
[2]
  P3_MAL Rank (before): 2482

## EWIREQMSPALKERLP
[5]
  P3_MAL Rank (after): 617
[6]
  P3_MAL Rank (before): 2023

## ELDFSHFWLFDGEAGGEP
[1]
  P8_MAL Rank (after): 569
[2]
  P8_MAL Rank (before): 2048

## AFFWAQVKSVLGNTTM
[7]
  P8_MAL Rank (after): 264
[8]
  P8_MAL Rank (before): 1603

## AFFWEQLRTVLRTPTL
[5]
  P8_MAL Rank (after): 613
[6]
  P8_MAL Rank (before): 1676

## TFLGHLLNALVQTDIL
[1]
  P8_MAL Rank (after): 508
[2]
  P8_MAL Rank (before): 2607

## VGWFLHTLSQHILKREK
[3]
  Rank (after): 168
[4]
  Rank (before): 528

## NQCHNAITADMNQTRL
[3]
  Rank (after): 402
[4]
  Rank (before): 3424

## WFYERLVRLILRDTKA
[9]
  Rank (after): 174
[10]
  Rank (before): 1185

## NQWRNALPAAANLRGW
[7]
  P3_MAL Rank (after): 286
[8]
  P3_MAL Rank (before): 3349

## KNLFNEMVSKNIRTYM
[1]
  P3_MAL Rank (after): 567
[2]
  P3_MAL Rank (before): 3780

## YAFTGYLHRYLVQRGG
[3]
  Rank (after): 445
[4]
  Rank (before): 1356

## LKVKLASGAGKSGQT
[5]
  P3_MAL Rank (after): 619
[6]
  P3_MAL Rank (before): 2301

## AFFWPQLKSVLGNPTK
[9]
  Rank (after): 146
[10]
  Rank (before): 1715

## YTALTNSASHTFRGND
[3]
  Rank (after): 444
[4]
  Rank (before): 1551

## SAFVAPLSEALNQRAL
[5]
  P3_MAL Rank (after): 675
[6]
  P3_MAL Rank (before): 2980

## SSFREGLWRLRELGKK
[5]
  P3_MAL Rank (after): 622
[6]
  P3_MAL Rank (before): 3161

## GFLSHLRHHLQAKDH
[3]
  Rank (after): 127
[4]
  Rank (before): 275

## RYIMPHPQVLSQKKQQ
[11]
  P3_MAL Rank (after): 725
[12]
  P3_MAL Rank (before): 2329

## DFLNWFIALKSTVLET
[5]
  P8_MAL Rank (after): 598
[6]
  P8_MAL Rank (before): 1976

## KCFWVTLLYALHRNPR
[3]
  Rank (after): 465
[4]
  Rank (before): 3483

## NQWRNALTAASNLSIW
[3]
  Rank (after): 169
[4]
  Rank (before): 3353

## SEFIQKIILWMNQTNV
[9]
  Rank (after): 440
[10]
  Rank (before): 2473

## VRHTFAGYLCVALNRL
[3]
  Rank (after): 431
[4]
  Rank (before): 1700

## YAFTGHPHRSLVQRGV
[7]
  P3_MAL Rank (after): 271
[8]
  P3_MAL Rank (before): 1446

## RLLKWNEELHLFHSWV
[5]
  P3_MAL Rank (after): 612
[6]
  P3_MAL Rank (before): 2490

## KEVDGWRDALTQVASL
[7]
  P3_MAL Rank (after): 196
[8]
  P3_MAL Rank (before): 3547

## SSFREGLWRLRGLSKK
[7]
  P3_MAL Rank (after): 232
[8]
  P3_MAL Rank (before): 3160

## TFLGQTYNAQAPAEIP
[5]
  P8_MAL Rank (after): 644
[6]
  P8_MAL Rank (before): 2613

## RLRKWKGALHHFLSWG
[11]
  P3_MAL Rank (after): 728
[12]
  P3_MAL Rank (before): 2544

## WQFHLRLRMHELLQKM
[7]
  P3_MAL Rank (after): 245
[8]
  P3_MAL Rank (before): 1314

## NQWRNALSSIASRP
[5]
  P3_MAL Rank (after): 625
[6]
  P3_MAL Rank (before): 3351

## SFMLKFRTVLHHVHDV
[5]
  P8_MAL Rank (after): 583
[6]
  P8_MAL Rank (before): 1451

## SFYERLVRLILRDTTV
[9]
  Rank (after): 189
[10]
  Rank (before): 1444

## YFLHFLLCSRPETAYI
[7]
  P8_MAL Rank (after): 199
[8]
  P8_MAL Rank (before): 1496

## AFFWERLRPVLRKPTR
[5]
  P8_MAL Rank (after): 637
[6]
  P8_MAL Rank (before): 1668

## SSFREGLWRWRELRKK
[1]
  P3_MAL Rank (after): 504
[2]
  P3_MAL Rank (before): 3170

## RLLKWKEALTAAANLSGW
[5]
  P3_MAL Rank (after): 642
[6]
  P3_MAL Rank (before): 2524

## WFFQEKVKIFEARKTI
[5]
  P3_MAL Rank (after): 669
[6]
  P3_MAL Rank (before): 1224

Reference: publication PMC11714206, “Massively Parallel Screening of Toll/Interleukin‐1 Receptor (TIR)‐Derived Peptides Reveals Multiple Toll‐Like Receptors (TLRs)‐Targeting Immunomodulatory Peptides” (Advanced Science, 2024)
